Data set [1] is described as follows: [3H]Thymidine incorporation assay (cell toxicity). As to conditions: human. Background: Incorporation of labelled thymidine or its analogues reports DNA synthesis.
For data set [2], the system named is HCV replicon (genotype 1b) in Huh7 cell line ET. The data set can be described thus: microbe, parasite or virus in culture. As to conditions: Hepatitis C virus. It counts as cell-based, HCV genotype 1b.
[3] abbreviates: Huh-7, read-out: HCV-Replicon-(Luci-ET) 1b_IC50.
Setting [4] is: Huh-7, 96 h, read-out: HCV-Replicon (Luci-ET)-1b_IC50.

Like-named read-outs stand apart in the source and are kept apart here. Some results are limits rather than exact numbers.

Here are results for 24 compounds from US20130190289A1, “COMPOUNDS AND METHODS FOR THE TREATMENT OR PREVENTION OF FLAVIVIRUS INFECTIONS” (priority 2010, published 2013).

As usually defined, the CC50 is the concentration at which the toxic effect on the cells reaches its halfway point. A high value points to better tolerance by the cells. As for `CC[C@@H](C(=O)N1CCCOCC1)N(c1cc(C#CC(C)(C)C)sc1C(=O)O)C(=O)[C@H]1CC[C@H](C)CC1` [Compound 84, 5-(3,3-Dimethylbut-1-ynyl)-3-[(trans-4-methylcyclohexanecarbonyl)-[(1S)-1-(1,4-oxazepane-4-carbonyl)propyl]amino]thiophene-2-carboxylic acid], the half-maximal cytotoxic concentration (CC50) at 72 h in data set [1] was in the range of 10 to 100 µM. The IC50 in data set [2] (setting [3]) is < 100 nM.

For the compound `CC(C)[C@@H](C(=O)N1CCOCC1)N(c1cc(C#CC(C)(C)C)sc1C(=O)O)C(=O)[C@H]1CC[C@H](C)CC1` [Compound 85, 5-(3,3-Dimethylbut-1-ynyl)-3-[(trans-4-methylcyclohexanecarbonyl)-[(1S)-2-methyl-1-(morpholine-4-carbonyl)propyl]amino]thiophene-2-carboxylic acid], in data set [1], the CC50 at 72 h lay in the range of 10 to 100 µM. In data set [2] (setting [3]), the IC50 is < 100 nM.

Regarding `CC(C)[C@@H](C(=O)N(C)C)N(c1cc(C#CC(C)(C)C)sc1C(=O)O)C(=O)[C@H]1CC[C@H](C)CC1` [Compound 86, 5-(3,3-Dimethylbut-1-ynyl)-3-[[(1S)-1-(dimethylcarbamoyl)-2-methyl-propyl]-(trans-4-methylcyclohexanecarbonyl)amino]thiophene-2-carboxylic acid], the CC50 at 72 h in data set [1] lay within 10 to 100 µM. In addition, the IC50 in data set [2] (setting [3]) was < 100 nM.

For `CCOC[C@@H](C(=O)N1CCOCC1)N(c1cc(C#CC(C)(C)C)sc1C(=O)O)C(=O)[C@H]1CC[C@H](C)CC1` [Compound 87, 5-(3,3-Dimethylbut-1-ynyl)-3-[[(1S)-1-(ethoxymethyl)-2-morpholino-2-oxo-ethyl]-(trans-4-methylcyclohexanecarbonyl)amino]thiophene-2-carboxylic acid], the CC50 at 72 h in data set [1] is > 100 µM. In addition, the IC50 in data set [2] (setting [3]) is < 100 nM.

On to `CCOC[C@@H](C(=O)N(C)C)N(c1cc(C#CC(C)(C)C)sc1C(=O)O)C(=O)[C@H]1CC[C@H](C)CC1` [Compound 88, 3-[[(1S)-2-(Dimethylamino)-1-(ethoxymethyl)-2-oxo-ethyl]-(trans-4-methylcyclohexanecarbonyl)amino]-5-(3,3-dimethylbut-1-ynyl)thiophene-2-carboxylic acid], for which the CC50 at 72 h in data set [1] is > 100 µM. In addition, the IC50 in data set [2] (setting [3]) is < 100 nM.

In the case of `CC[C@@H](C(=O)N(C)C)N(c1cc(C#CC(C)C)sc1C(=O)O)C(=O)[C@H]1CC[C@H](C)CC1` [Compound 89, 3-[[(1S)-1-(dimethylcarbamoyl)propyl]-(trans-4-methylcyclohexanecarbonyl)amino]-5-(3-methylbut-1-ynyl)thiophene-2-carboxylic acid], the 50% cytotoxic concentration (CC50) at 72 h in data set [1] was > 100 µM. The IC50 in data set [2] (setting [3]) was < 100 nM.

As to `CC[C@@H](C(=O)N1CCOCC1)N(c1cc(C#CC(C)C)sc1C(=O)O)C(=O)[C@H]1CC[C@H](C)CC1` [Compound 90, 5-(3-Methylbut-1-ynyl)-3-[(trans-4-methylcyclohexanecarbonyl)-[(1S)-1-(morpholine-4-carbonyl)propyl]amino]thiophene-2-carboxylic acid], in data set [1], the CC50 at 72 h was > 100 µM. For the same compound, the IC50 in data set [2] (setting [3]) was < 100 nM.

In data set [1], `C[C@@H](CC(=O)N(C)C)N(c1cc(C#CC(C)(C)C)sc1C(=O)O)C(=O)[C@H]1CC[C@H](C)CC1` [Compound 96, 3-((trans)-N—((S)-4-(dimethylamino)-4-oxobutan-2-yl)-4-methylcyclohexanecarboxamido)-5-(3,3-dimethylbut-1-yn-1-yl)thiophene-2-carboxylic acid] showed a CC50 at 72 h of 10 to 100 µM. The IC50 in data set [2] (setting [3]) is < 100 nM.

In the case of `CC1CCC(C(=O)N(CCC(=O)N2CCOCC2)c2cc(C#CC(C)(C)C)sc2C(=O)O)CC1` (stereo not drawn) [Compound 97], the CC50 at 72 h in data set [1] was > 100 µM. In data set [2] (setting [3]), the IC50 is < 100 nM.

Take `C[C@@H](CC(=O)N1CCOCC1)N(c1cc(C#CC(C)(C)C)sc1C(=O)O)C(=O)[C@H]1CC[C@H](C)CC1` [Compound 105, 5-(3,3-Dimethylbut-1-ynyl)-3-[(trans-4-methylcyclohexanecarbonyl)-[(1S)-1-methyl-3-morpholino-3-oxo-propyl]amino]thiophene-2-carboxylic acid]: in data set [1], the CC50 at 72 h is > 100 µM. Besides, in data set [2] (setting [3]), the IC50 is < 100 nM.

For `C[C@H](CC(=O)N1CCOCC1)N(c1cc(C#CC(C)(C)C)sc1C(=O)O)C(=O)[C@H]1CC[C@H](C)CC1` [Compound 106, 5-(3,3-Dimethylbut-1-ynyl)-3-[(trans-4-methylcyclohexanecarbonyl)-[(1R)-1-methyl-3-morpholino-3-oxo-propyl]amino]thiophene-2-carboxylic acid], the CC50 at 72 h in data set [1] was > 100 µM. Further, the IC50 in data set [2] (setting [3]) is < 100 nM.

Take `C[C@H](CN(c1cc(C#CC(C)(C)C)sc1C(=O)O)C(=O)[C@H]1CC[C@H](C)CC1)C(=O)N1CCOCC1` [Compound 109, 5-(3,3-dimethylbut-1-ynyl)-3-[(trans-4-methylcyclohexanecarbonyl)-[(2R)-2-methyl-3-morpholino-3-oxo-propyl]amino]thiophene-2-carboxylic acid]: the CC50 at 72 h in data set [1] was > 100 µM. For the same compound, the IC50 in data set [2] (setting [3]) was < 100 nM.

With `C[C@@H](CC(=O)N1CCN(C)CC1)N(c1cc(C#CC(C)(C)C)sc1C(=O)O)C(=O)[C@H]1CC[C@H](C)CC1` [Compound 110, 5-(3,3-Dimethylbut-1-ynyl)-3-[(trans-4-methylcyclohexanecarbonyl)-[(1S)-1-methyl-3-(4-methylpiperazin-1-yl)-3-oxo-propyl]amino]thiophene-2-carboxylic acid], the CC50 at 72 h in data set [1] was > 100 µM. In data set [2] (setting [3]), the IC50 was < 100 nM.

As to `CCNC(=O)C[C@H](C)N(c1cc(C#CC(C)(C)C)sc1C(=O)O)C(=O)[C@H]1CC[C@H](C)CC1` [Compound 111, 5-(3,3-Dimethylbut-1-ynyl)-3-[[(1S)-3-(ethylamino)-1-methyl-3-oxo-propyl]-(trans-4-methylcyclohexanecarbonyl)amino]thiophene-2-carboxylic acid], the CC50 at 72 h in data set [1] was > 100 µM. In addition, the IC50 in data set [2] (setting [3]) was < 100 nM.

Turning to `C[C@@H](CC(=O)N(C)C1CCN(C)CC1)N(c1cc(C#CC(C)(C)C)sc1C(=O)O)C(=O)[C@H]1CC[C@H](C)CC1` [Compound 113, 5-(3,3-Dimethylbut-1-ynyl)-3-[(trans-4-methylcyclohexanecarbonyl)-[(1S)-1-methyl-3-[methyl-(1-methyl-4-piperidyl)amino]-3-oxo-propyl]amino]thiophene-2-carboxylic acid], the CC50 at 72 h in data set [1] was > 100 µM. Also, the IC50 in data set [2] (setting [3]) was < 100 nM.

Turning to `COCCN(C)C(=O)C[C@H](C)N(c1cc(C#CC(C)(C)C)sc1C(=O)O)C(=O)[C@H]1CC[C@H](C)CC1` [Compound 114, 5-(3,3-Dimethylbut-1-ynyl)-3-[[(1S)-3-[2-methoxyethyl(methyl)amino]-1-methyl-3-oxo-propyl]-(trans-4-methylcyclohexanecarbonyl)amino]thiophene-2-carboxylic acid], in data set [1], the CC50 at 72 h is > 100 µM. For the same compound, in data set [2] (setting [3]), the IC50 is < 100 nM.

In the case of `COC1CCN(C(=O)C[C@H](C)N(c2cc(C#CC(C)(C)C)sc2C(=O)O)C(=O)[C@H]2CC[C@H](C)CC2)CC1` [Compound 115, 5-(3,3-Dimethylbut-1-ynyl)-3-[[(1S)-3-(4-methoxy-1-piperidyl)-1-methyl-3-oxo-propyl]-(trans-4-methylcyclohexanecarbonyl)amino]thiophene-2-carboxylic acid], the CC50 at 72 h in data set [1] is > 100 µM. Besides, the IC50 in data set [2] (setting [3]) was < 100 nM.

On to `COC1CN(C(=O)C[C@H](C)N(c2cc(C#CC(C)(C)C)sc2C(=O)O)C(=O)[C@H]2CC[C@H](C)CC2)C1` [Compound 116, 5-(3,3-Dimethylbut-1-ynyl)-3-[[(1S)-3-(3-methoxyazetidin-1-yl)-1-methyl-3-oxo-propyl]-(trans-4-methylcyclohexanecarbonyl)amino]thiophene-2-carboxylic acid], for which the CC50 at 72 h in data set [1] was > 100 µM. For the same compound, in data set [2] (setting [3]), the IC50 was < 100 nM.

Turning to `CN1CCC[C@H](N(c2cc(C#CC(C)(C)C)sc2C(=O)O)C(=O)[C@H]2CC[C@H](C)CC2)C1=O` [Compound 117, 5-(3,3-dimethylbut-1-yn-1-yl)-3-(trans-4-methyl-N—((S)-1-methyl-2-oxopiperidin-3-yl)cyclohexanecarboxamido)thiophene-2-carboxylic acid], in data set [1], the CC50 at 72 h was > 100 µM. The IC50 in data set [2] (setting [3]) is < 100 nM.

With `C[C@H]1CC[C@H](C(=O)N(CC(=O)N2CCOCC2)c2cc(-c3ccccc3)sc2C(=O)O)CC1` [Compound 121, 3-[(trans-4-methylcyclohexanecarbonyl)-N-(2-morpholino-2-oxoethyl)amino]-5-phenylthiophene-2-carboxylic acid], the CC50 at 72 h in data set [1] is > 100 µM. Besides, the IC50 in data set [2] (setting [4]) lay in the range of 1000 to 10000 nM.

On to `CC[C@H](C(=O)N1CCOCC1)N(c1cc(C#CC(C)(C)C)sc1C(=O)O)C(=O)[C@H]1CC[C@H](C)CC1` [Compound 122, 5-(3,3-dimethylbut-1-ynyl)-3-[(trans-4-methylcyclohexanecarbonyl)-[(1R)-1-(morpholine-4-carbonyl)propyl]amino]thiophene-2-carboxylic acid], for which the CC50 at 72 h in data set [1] was > 100 µM. Moreover, the IC50 in data set [2] (setting [4]) is < 100 nM.

As to `CC(C)(C)C#Cc1cc(N(CC(=O)N2CCOCC2)C(=O)c2ccc(Cl)cc2)c(C(=O)O)s1` [Compound 123, 3-[(4-chlorobenzoyl)-(2-morpholino-2-oxo-ethyl)amino]-5-(3,3-dimethylbut-1-ynyl)thiophene-2-carboxylic acid], the half-maximal cytotoxic concentration (CC50) at 72 h in data set [1] is > 100 µM. For the same compound, the IC50 in data set [2] (setting [4]) is < 100 nM.

As for `Cc1ccc(C(=O)N(CC(=O)N2CCOCC2)c2cc(C#CC(C)(C)C)sc2C(=O)O)cc1` [Compound 125, 5-(3,3-dimethylbut-1-ynyl)-3-[(4-methylbenzoyl)-(2-morpholino-2-oxo-ethyl)amino]thiophene-2-carboxylic acid], the CC50 at 72 h in data set [1] was > 100 µM. Also, the IC50 in data set [2] (setting [4]) is 100 to 1000 nM.

`CC[C@@H](C(=O)N1CCOCC1)N(c1cc(-c2ccccc2)sc1C(=O)O)C(=O)[C@H]1CC[C@H](C)CC1` [Compound 126, 3-[(trans-4-methylcyclohexanecarbonyl)-[(1S)-1-(morpholine-4-carbonyl)propyl]amino]-5-phenyl-thiophene-2-carboxylic acid]: in data set [1], the CC50 at 72 h was > 100 µM. In addition, the IC50 in data set [2] (setting [4]) was in the range of 100 to 1000 nM.
